{"source": "patent US20100292188A1", "about": "“Compounds Comprising A Cyclobutoxy Group” (UCB PHARMA S.A., priority 2008, published 2010)", "data": [{"units": {"melting point": "°C"}, "values": [{"smiles": "CC(=O)NCCC(=O)N1CCc2nc(-c3ccc(O[C@H]4C[C@H](N5CCCCC5)C4)cc3)sc2C1", "note": "[Compound 42, N-{3-oxo-3-[2-{4-[(trans-3-piperidin-1-ylcyclobutyl)oxy]phenyl}-6,7-dihydro[1,3]thiazolo[5,4-c]pyridin-5(4H)-yl]propyl}acetamide]", "melting point": 144}, {"smiles": "O=C(O)COCC(=O)N1CCc2nc(-c3ccc(O[C@H]4C[C@H](N5CCCCC5)C4)cc3)sc2C1", "note": "[Compound 43, {2-oxo-2-[2-{4-[(trans-3-piperidin-1-ylcyclobutyl)oxy]phenyl}-6,7-dihydro[1,3]thiazolo[5,4-c]pyridin-5(4H)-yl]ethoxy}acetic acid]", "melting point": "> 200"}, {"smiles": "O=C(C(O)C(F)(F)F)N1CCc2nc(-c3ccc(O[C@H]4C[C@H](N5CCCCC5)C4)cc3)sc2C1", "note": "(stereo partly drawn) [Compound 44, 1,1,1-trifluoro-3-oxo-3-[2-{4-[(trans-3-piperidin-1-ylcyclobutyl)oxy]phenyl}-6,7-dihydro[1,3]thiazolo[5,4-c]pyridin-5(4H)-yl]propan-2-ol]", "melting point": "147 to 148"}, {"smiles": "O=C(C1CCOCC1)N1CCc2nc(-c3ccc(O[C@H]4C[C@H](N5CCCCC5)C4)cc3)sc2C1", "note": "[Compound 45, 2-{4-[(trans-3-piperidin-1-ylcyclobutyl)oxy]phenyl}-5-(tetrahydro-2H-pyran-4-ylcarbonyl)-4,5,6,7-tetrahydro[1,3]thiazolo[5,4-c]pyridine]", "melting point": "175 to 176"}, {"smiles": "O=C(N1CCc2nc(-c3ccc(O[C@H]4C[C@H](N5CCCCC5)C4)cc3)sc2C1)C1(O)CC1", "note": "[Compound 46, 1-{[2-{4-[(trans-3-piperidin-1-ylcyclobutyl)oxy]phenyl}-6,7-dihydro[1,3]thiazolo[5,4-c]pyridin-5(4H)-yl]carbonyl}cyclopropanol]", "melting point": 178}, {"smiles": "NC(=O)C1(C(=O)N2CCc3nc(-c4ccc(O[C@H]5C[C@H](N6CCCCC6)C5)cc4)sc3C2)CC1", "note": "[Compound 47, 1-{[2-{4-[(trans-3-piperidin-1-ylcyclobutyl)oxy]phenyl}-6,7-dihydro[1,3]thiazolo[5,4-c]pyridin-5(4H)-yl]carbonyl}cyclopropanecarboxamide]", "melting point": "199 to 200"}, {"smiles": "CCOC(=O)C(=O)N1CCc2nc(-c3ccc(O[C@H]4C[C@H](N5CCCCC5)C4)cc3)sc2C1", "note": "[Compound 49, ethyl oxo[2-{4-[(trans-3-piperidin-1-ylcyclobutyl)oxy]phenyl}-6,7-dihydro[1,3]thiazolo[5,4-c]pyridin-5(4H)-yl]acetate]", "melting point": "145 to 146"}, {"smiles": "CC(=O)N1CCc2nc(-c3ccc(O[C@H]4C[C@H](N5CCN(C6CCCC6)CC5)C4)cc3)sc2C1", "note": "[Compound 51, 5-acetyl-2-(4-{[trans-3-(4-cyclopentylpiperazin-1-yl)cyclobutyl]oxy}phenyl)-4,5,6,7-tetrahydro[1,3]thiazolo[5,4-c]pyridine]", "melting point": "145.7 to 146.1"}, {"smiles": "NC(=O)NCC(=O)N1CCc2nc(-c3ccc(O[C@H]4C[C@H](N5CCCCC5)C4)cc3)sc2C1", "note": "[Compound 52, 1-{2-oxo-2-[2-{4-[(trans-3-piperidin-1-ylcyclobutyl)oxy]phenyl}-6,7-dihydro[1,3]thiazolo[5,4-c]pyridin-5(4H)-yl]ethyl}urea]", "melting point": "209 to 210"}, {"smiles": "O=C(C(O)CO)N1CCc2nc(-c3ccc(O[C@H]4C[C@H](N5CCCCC5)C4)cc3)sc2C1", "note": "(stereo partly drawn) [Compound 54, 3-oxo-3-[2-{4-[(trans-3-piperidin-1-ylcyclobutyl)oxy]phenyl}-6,7-dihydro[1,3]thiazolo[5,4-c]pyridin-5(4H)-yl]propane-1,2-diol]", "melting point": "167 to 168"}, {"smiles": "O=c1c(O)c(N2CCc3nc(-c4ccc(O[C@H]5C[C@H](N6CCCCC6)C5)cc4)sc3C2)c1=O", "note": "[Compound 55, 3-hydroxy-4-[2-{4-[(trans-3-piperidin-1-ylcyclobutyl)oxy]phenyl}-6,7-dihydro[1,3]thiazolo[5,4-c]pyridin-5(4H)-yl]cyclobut-3-ene-1,2-dione]", "melting point": "> 220"}, {"smiles": "CC(C)Oc1c(N2CCc3nc(-c4ccc(O[C@H]5C[C@H](N6CCCCC6)C5)cc4)sc3C2)c(=O)c1=O", "note": "[Compound 56, 3-isopropoxy-4-[2-{4-[(trans-3-piperidin-1-ylcyclobutyl)oxy]phenyl}-6,7-dihydro[1,3]thiazolo[5,4-c]pyridin-5(4H)-yl]cyclobut-3-ene-1,2-dione]", "melting point": "157 to 159"}, {"smiles": "O=C(CO)N1CCc2sc(-c3ccc(O[C@H]4C[C@H](N5CCCCC5)C4)cc3)nc2C1", "note": "[Compound 63, 2-oxo-2-[2-{4-[(trans-3-piperidin-1-ylcyclobutyl)oxy]phenyl}-6,7-dihydro[1,3]thiazolo[4,5-c]pyridin-5(4H)-yl]ethanol]", "melting point": 155.3}, {"smiles": "NC(=O)N1CCc2sc(-c3ccc(O[C@H]4C[C@H](N5CCCCC5)C4)cc3)nc2C1", "note": "[Compound 64, 2-{4-[(trans-3-piperidin-1-ylcyclobutyl)oxy]phenyl}-6,7-dihydro[1,3]thiazolo[4,5-c]pyridine-5(4H)-carboxamide]", "melting point": 214.3}, {"smiles": "NC(=O)CC(=O)N1CCc2sc(-c3ccc(O[C@H]4C[C@H](N5CCCCC5)C4)cc3)nc2C1", "note": "[Compound 65, 3-oxo-3-[2-{4-[(trans-3-piperidin-1-ylcyclobutyl)oxy]phenyl}-6,7-dihydro[1,3]thiazolo[4,5-c]pyridin-5(4H)-yl]propanamide]", "melting point": 183.4}, {"smiles": "c1cc2nc(-c3ccc(O[C@H]4C[C@H](N5CCCCC5)C4)cc3)[nH]c2cn1", "note": "[Compound 69, 2-{4-[(trans-3-piperidin-1-ylcyclobutyl)oxy]phenyl}-3H-imidazo[4,5-c]pyridine]", "melting point": "165 to 172"}]}]}
